# In patent US20100093871A1, “AGENT FOR PREVENTION OR TREATMENT OF IRON OVERLOAD DISORDERS” (MEIJI SEIKA KAISHA, LTD., priority 2007, published 2010):
# Test system: serum ferritin
# Experiment: Serum ferritin in chronic hepatitis C patients after oral administration for 24 weeks
# Assay type: in vivo, human (patients suffering from chronic hepatitis C)
# Conditions: patients with chronic hepatitis C, 50 mg/day or 200 mg/day in two divided doses, CLIA, percentage change vs level before administration
# Description: To patients suffering from chronic hepatitis C, 22β-methoxyolean-12-ene-3β,24(4β)-diol was orally administered for 24 weeks, at a daily dose of 50 mg/day or 200 mg/day. The administration of 22β-methoxyolean-12-ene-3β,24(4β)-diol in each administration group was carried out by orally administering half of each daily dose twice a day after eating breakfast and dinner. For example, in the 50 mg/day administration group, each day 25 mg of the drug was orally administered after breakfast and 25 mg of the drug was orally administered after dinner. Immediately after the beginning of the administration, and after 2, 4, 8, 12, 16, 20, and 24 weeks from the beginning of the administration, serum samples were collected to determine serum ferritin contained in the samples. […] Serum ferritin was determined by a chemiluminescence immunoassay (CLIA) with reference to a method described in a protocol attached to Chemilumi ACS-Ferritin II (Bayer Medical). Each serum ferritin level contained in each serum sample collected was indicated as percentage, with the serum ferritin level before the administration of 22β-methoxyolean-12-ene-3β,24(4β)-diol regarded as […], and an average and a median of all patients were calculated.
structure (smiles),measurement,value
"CO[C@@H]1CC(C)(C)CC2C3=CCC4[C@@]5(C)CC[C@H](O)[C@](C)(CO)C5CC[C@@]4(C)[C@]3(C)CC[C@]21C (stereo partly drawn) [22β-methoxyolean-12-ene-3β,24(4β)-diol]",serum ferritin level,serum ferritin was lowered
